Data reported in patent US5171748A, “Benz[4,5]imidazole-containing angiotensin antagonists” (Imperial Chemical Industries plc, priority 1989, dated 1992).

Legend:
[1] = molecular target: T1, AII receptors (cell surface membrane fraction, guinea pig adrenal gland) (Cavia porcellus, UniProt Q9WV26); assay: Test A: displacement of radiolabelled AII binding to guinea pig adrenal membrane fraction; settings: read-out: IC50 (concentration for 50% displacement of radiolabelled AII binding)
T1 construct: from tissue; host or cells: guinea pig adrenal gland, cell surface membrane fraction
T1 sequence (Q9WV26 1-359): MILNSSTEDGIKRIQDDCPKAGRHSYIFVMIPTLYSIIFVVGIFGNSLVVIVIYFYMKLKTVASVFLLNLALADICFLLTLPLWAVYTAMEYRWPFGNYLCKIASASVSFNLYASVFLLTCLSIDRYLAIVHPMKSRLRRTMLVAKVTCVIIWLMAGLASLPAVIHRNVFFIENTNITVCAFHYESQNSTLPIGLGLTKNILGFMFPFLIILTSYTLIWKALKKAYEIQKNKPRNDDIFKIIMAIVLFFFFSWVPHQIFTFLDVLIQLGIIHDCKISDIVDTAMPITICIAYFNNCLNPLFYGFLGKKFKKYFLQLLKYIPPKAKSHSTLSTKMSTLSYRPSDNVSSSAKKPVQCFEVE
Procedure: Test A: This in vitro procedure involves the incubation of the test compound initially at a concentration of 100 micromolar (or less) in a buffered mixture containing fixed concentrations of radiolabelled AII and a cell surface membrane fraction prepared from a suitable angiotensin target tissue. In this test, the source of cell surface membranes is the guinea pig adrenal gland which is well known to respond to AII. Interaction of the radiolabelled AII with its receptors (assessed as radiolabel bound to the particulate membrane fraction following removal of unbound radiolabel by a rapid filtration procedure such as is standard in such studies) is antagonized by compounds which also bind to the membrane receptor sites and the degree of antagonism (observed in the test as displacement of membrane-bound radioactivity) is determined readily by comparing the receptor-bound radioactivity in the presence of the test compound at the specified test concentration with a control value determined in the absence of the test compound. Using this procedure compounds showing at least 50% displacement of radiolabelled AII binding at a concentration of 10^-4 M are retested at lower concentrations to determine their potency. […]

[2] = molecular target: T2, AII-induced contractions of isolated rabbit aorta (Oryctolagus cuniculus, UniProt P34976); assay: Test B: antagonism of AII-induced contractions of isolated rabbit aorta; assay type: cell-based; settings: 37° C., read-out: pA2 (converted)
T2 construct: isolated rabbit aorta, maintained in a physiological salt solution; from tissue; host or cells: isolated rabbit aorta
T2 sequence (P34976 1-359): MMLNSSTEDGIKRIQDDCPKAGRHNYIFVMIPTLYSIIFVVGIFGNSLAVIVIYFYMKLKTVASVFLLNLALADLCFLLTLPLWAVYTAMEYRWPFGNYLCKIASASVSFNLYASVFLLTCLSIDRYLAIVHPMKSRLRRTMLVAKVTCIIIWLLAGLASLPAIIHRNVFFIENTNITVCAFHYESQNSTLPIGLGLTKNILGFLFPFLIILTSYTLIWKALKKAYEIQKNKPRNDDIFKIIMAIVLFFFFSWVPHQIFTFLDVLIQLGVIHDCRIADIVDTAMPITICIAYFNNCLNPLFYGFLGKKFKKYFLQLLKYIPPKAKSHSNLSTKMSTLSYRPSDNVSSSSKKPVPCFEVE
Procedure: Test B: This in vitro test involves the measurement of the antagonistic effects of the test compound against AII-induced contractions of isolated rabbit aorta, maintained in a physiological salt solution at 37° C. In order to ensure that the effect of the compound is specific to antagonism of AII, the effect of the test compound on noradrenaline-induced contractions may also be determined in the same preparation.

[3] = tested on: angiotensin II-induced pressor responses; assay: Test C: antagonism of angiotensin II-induced pressor responses in terminally-anaesthetised or conscious rats; assay type: in vivo; settings: Rattus norvegicus, parenteral administration
Procedure: Test C: This in vivo test involves using terminally-anaesthetised or conscious rats in which an arterial catheter has been implanted under anaesthesia for the measurement of changes in blood pressure. The AII antagonistic effects of the test compound following oral or parenteral administration, are assessed against angiotensin II-induced pressor responses. To ensure that the effect is specific the effect of the test compound on vasopressin-induced pressor responses may also be determined in the same preparation.

IC50 [1]: 100 nM
Kb [2]: 25.1 nM
Structure (SMILES): CCCCc1nc2ccccc2n1Cc1ccc(C(=O)NS(=O)(=O)c2ccccc2)cc1 [Example 3, 4-[(2-butyl-1H-benzimidazol-1-yl)methyl]-N-phenylsulphonylbenzamide]
ED50 [3]: 3 mg/kg
